Measured values published in article PMC7614683, “A small molecule PI3Kα activator for cardioprotection and neuroregeneration” (Nature, 2023).
Like-named read-outs stand apart in the source and are kept apart here.

What was measured:
PI3Kα E545K mutant = molecular target: T1, PI3Kα E545K mutant (Homo sapiens, UniProt P42336, E545K); test: ADP-Glo catalytic activity, oncogenic mutant E545K; assay type: biochemical
T1 construct: Full-length human p110α was expressed either in a complex with full-length human p85α (for HTS, biochemistry and HDX-MS); 6xHis tag followed by TEV protease site (N); host or cells: Sf9, baculovirus
T1 sequence (P42336 whole entry E545K): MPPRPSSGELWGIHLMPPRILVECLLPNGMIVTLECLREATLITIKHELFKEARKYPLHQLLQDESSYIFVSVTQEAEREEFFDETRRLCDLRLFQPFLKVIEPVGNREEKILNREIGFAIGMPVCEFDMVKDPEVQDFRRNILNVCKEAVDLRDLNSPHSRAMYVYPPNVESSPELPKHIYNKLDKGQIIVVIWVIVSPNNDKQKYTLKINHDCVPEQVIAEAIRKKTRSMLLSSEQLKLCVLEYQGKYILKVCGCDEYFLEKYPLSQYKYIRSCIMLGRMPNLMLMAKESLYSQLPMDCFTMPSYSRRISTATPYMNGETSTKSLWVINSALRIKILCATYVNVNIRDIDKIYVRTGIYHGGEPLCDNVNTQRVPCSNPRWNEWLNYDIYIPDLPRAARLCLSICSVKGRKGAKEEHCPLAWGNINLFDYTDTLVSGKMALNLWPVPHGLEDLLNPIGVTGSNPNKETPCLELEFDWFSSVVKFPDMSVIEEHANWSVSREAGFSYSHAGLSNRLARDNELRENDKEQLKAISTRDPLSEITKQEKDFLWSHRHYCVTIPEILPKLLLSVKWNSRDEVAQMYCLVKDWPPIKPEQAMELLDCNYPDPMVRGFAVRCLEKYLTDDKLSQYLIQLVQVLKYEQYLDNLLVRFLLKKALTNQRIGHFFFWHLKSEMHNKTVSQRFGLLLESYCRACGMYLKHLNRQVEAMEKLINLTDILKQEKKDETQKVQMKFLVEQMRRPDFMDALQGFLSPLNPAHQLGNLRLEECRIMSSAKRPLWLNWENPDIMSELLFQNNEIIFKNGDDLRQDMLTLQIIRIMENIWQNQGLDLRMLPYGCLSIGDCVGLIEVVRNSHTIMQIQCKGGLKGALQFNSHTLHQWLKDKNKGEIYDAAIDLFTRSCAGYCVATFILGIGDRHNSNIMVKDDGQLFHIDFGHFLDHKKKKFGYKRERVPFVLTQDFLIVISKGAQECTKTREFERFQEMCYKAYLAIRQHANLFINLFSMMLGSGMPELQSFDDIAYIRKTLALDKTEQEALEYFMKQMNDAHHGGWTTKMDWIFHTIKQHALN
T1 sequence (P27986 whole entry partner): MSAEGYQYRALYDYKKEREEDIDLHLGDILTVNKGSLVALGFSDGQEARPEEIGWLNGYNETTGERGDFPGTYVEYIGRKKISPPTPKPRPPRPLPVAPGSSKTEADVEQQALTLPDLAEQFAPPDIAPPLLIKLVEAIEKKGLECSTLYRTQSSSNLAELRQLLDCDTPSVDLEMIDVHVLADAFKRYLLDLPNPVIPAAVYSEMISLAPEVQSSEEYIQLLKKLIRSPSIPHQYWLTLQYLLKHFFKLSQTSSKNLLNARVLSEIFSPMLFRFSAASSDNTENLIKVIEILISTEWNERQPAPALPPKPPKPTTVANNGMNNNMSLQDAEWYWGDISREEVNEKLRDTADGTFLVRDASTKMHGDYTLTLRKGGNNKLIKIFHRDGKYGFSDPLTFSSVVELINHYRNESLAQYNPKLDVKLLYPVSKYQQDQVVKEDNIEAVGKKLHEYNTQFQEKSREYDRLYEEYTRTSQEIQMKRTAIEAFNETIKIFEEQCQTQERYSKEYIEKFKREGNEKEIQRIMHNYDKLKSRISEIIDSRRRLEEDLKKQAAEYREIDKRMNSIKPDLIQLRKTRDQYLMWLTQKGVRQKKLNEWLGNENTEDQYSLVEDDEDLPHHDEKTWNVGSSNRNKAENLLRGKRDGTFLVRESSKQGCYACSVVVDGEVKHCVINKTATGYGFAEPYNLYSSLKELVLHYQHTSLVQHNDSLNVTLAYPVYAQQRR
Protocol: Expression and purification of wild-type p110α (Cambridge MRC Laboratory for Molecular Biology (LMB-MRC) plasmid number OP831) in a complex with full-length p85α (LMB-MRC plasmid OP809) was performed as described. The oncogenic mutants G106V (LMB-MRC plasmid JB35), N345K (LMB-MRC plasmid OP661) and E545K (LMB-MRC plasmid OP663) were also purified using this protocol. Briefly, 10 litres of Spodoptera frugiperda (Sf9) cell culture at a density of 1.0 x 10^6 cells/ml were co-infected with a p85α-encoding virus [LMB-MRC plasmid OP809]. and a virus encoding p110α with an N-terminal 6xHis tag followed by a tobacco etch virus (TEV) protease site [LMB-MRC plasmid OP831]. After a 48 h infection at 27°C, cells were harvested and washed with PBS. […]
For characterisation of the effects of 1938 on in vitro PI3K enzymology, all reactions were performed at room temperature with 384 white-polystyrene plates (Corning #3574). […] Data was expressed as velocity (nmol of ADP generated/nmol of enzyme/sec). […] Luminescence was read using a PHERAstar® plate reader with software version 5.41, and analyses were performed using GraphPad Prism 8/9.

LCK = LCK (Homo sapiens, UniProt P06239); test: SelectScreen kinase profiling, LCK; assay type: biochemical
LCK, sequence (P06239 whole entry): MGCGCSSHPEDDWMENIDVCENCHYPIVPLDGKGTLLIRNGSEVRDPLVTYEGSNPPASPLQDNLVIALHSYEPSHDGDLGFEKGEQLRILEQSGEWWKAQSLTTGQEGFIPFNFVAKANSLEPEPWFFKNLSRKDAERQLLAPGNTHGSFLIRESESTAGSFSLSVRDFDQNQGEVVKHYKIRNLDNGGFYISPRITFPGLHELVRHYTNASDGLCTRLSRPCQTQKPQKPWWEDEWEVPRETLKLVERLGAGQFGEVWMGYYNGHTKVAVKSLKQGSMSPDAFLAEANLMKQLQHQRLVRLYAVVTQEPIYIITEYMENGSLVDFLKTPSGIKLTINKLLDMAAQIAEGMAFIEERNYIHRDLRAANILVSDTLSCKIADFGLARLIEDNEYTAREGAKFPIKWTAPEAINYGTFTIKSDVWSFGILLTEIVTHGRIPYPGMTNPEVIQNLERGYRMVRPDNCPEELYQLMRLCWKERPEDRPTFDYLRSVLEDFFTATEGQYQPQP
Protocol: 133 protein kinases and 7 lipid kinases were counterscreened, with 1938 used at 1 μM, using the Adapta, Lantha and Z-LYTE assays (SelectScreen Kinase Profiling Service; Thermofisher – experimental details of these assays can be found here: https://www.thermofisher.com/uk/en/home/industrial/pharma-biopharma/drug-discovery-development/target-and-lead-identification-and-validation/kinasebiology/kinase-activity-assays.html. The tree represention in KinMap[59] generated courtesy of Cell Signaling Technology, Inc. (www.cellsignal.com). mTORC1 (mTOR/RAPTOR/LST8) protein complex and ATM kinase and substrates were produced as previously described[57],[60]. Screening of 1938 was conducted using SuperSep Phos-Tag 50 μmol/l 100 x 100 x 6.6 mm 17-well (192-18001/199-18011) gels. For ATM assays, 100 nM ATM was incubated for 30 min at 30°C with 5 μM GST-p53 and 1 mM ATP, in the absence or presence of 200 μM 1938 in ATM Kinase Buffer (50 mM HEPES pH 7.5, 100 mM NaCl, 10% glycerol, 2 mM […], 5 mM MgCl2). As a positive control for ATM activation, the same reaction was carried out with 100 nM ATM/5 μM GST-p53/1 mM ATP in the presence of 100 nM Mre11-Rad50-Nbs1 (MRN) complex, a known activator of ATM[61]. For mTORC1 assays, 50 nM mTORC1 complex (mTOR/LST8/RAPTOR) was incubated for 3 h at 30°C with 15 μM 4E-BP1, 10 mM MgCl2 and 250 μM ATP, in the absence or presence of 200 μM 1938. As a ‘positive’ control, a higher concentration (150 nM) of mTORC1 complex (mTOR/LST8/RAPTOR) was incubated for 3 h at 30°C with 15 μM 4E-BP1, 10 mM MgCl2 and 250 μM ATP. Kinase reactions were quenched by addition of SDS-PAGE Loading Buffer (as per manufacturer’s instructions) and freezing at -20°C before being run on the Phos-tag gels at 150 V for 90 min. Gels were then stained using InstantBlue™ Coomassie, and quantified using BioRad Image Lab Software. Kinase assays were carried out in triplicate.

For `CCN1CCN(c2ccc(Nc3cc(Nc4cccc5c4N(C(C)=O)CC5)ccn3)cc2)CC1` [Compound 1938], the “activation of E545K mutant” value (PI3Kα E545K mutant) was “could be further activated by 1938”, the inhibition at 1 µM (LCK; read-out: % Inhibition Point 1) was 60% and the inhibition at 1 µM (LCK; read-out: % Inhibition Point 2) was 57%. For the same compound, the inhibition at 1 µM (LCK; read-out: % Inhibition mean) was 58%.
